Values quoted from earlier work in patent publication US6358910B1, “Detergent compositions” (Lever Brothers Company, divison of Conopco, Inc., priority 1997, dated 2002).

Details: grams of solid to form a saturated solution in 100 grams of water at 20° C.

Water Solubility (g/100 g)	SMILES
15 g/100 g	O=P(O)(O)OP(=O)(O)OP(=O)(O)O [Sodium tripolyphosphate anhydrous]
>100 g/100 g	NC(N)=O [Urea]

SMILES	Water Solubility (g/100 g)
O=BO[O-].[Na+] [Sodium perborate anhydrous]	3.7 g/100 g
